# Data taken from patent US11732003B2, “Mechanical method of maintaining narrow residence time distributions in continuous flow systems” (priority 2017, dated 2023).
# Read-outs that look alike come from different tables or passages of the source.
# Legend:
# Phi6 [1] = details: static, pH 3.6 (8.7 M acetic acid), mAb 5 mg/mL, 22-25° C.
# Method: In this representative experiment, the purpose was to evaluate the inactivation kinetics of an enveloped bacteriophage virus (Phi6) at low pH conditions. The objective was to determine the exposure time required for complete inactivation.
# A monoclonal antibody (mAb) was purified by standard Protein A chromatography and prepared at a concentration of 5 mg/mL. […] Human serum albumin (HSA) (0.25% v/v) was added for Phi6 stability. Following confirmation of pH, the virus spike was added to the sample reservoir containing the mAb and vortexed to ensure a well-mixed system. The Phi6 target spike level was 1×10^7 pfu (plaque forming units)/mL. Within 0.3 minutes of the virus addition, a 1 mL sample was removed and transferred to a tube containing a previously determined volume of 2 M Tris Base, pH 10 to neutralize (pH 6-8) the sample and quench the inactivation step. The tube was vortexed after the base addition. This process of removing and neutralizing a sample was repeated for each time point. These experiments were carried out at room temperature, 22-25° C. Control samples at the initial and final time points were also analyzed. For the control samples, the pH was maintained at the feed pH level (pH 6.3) but the samples were diluted similarly to the actual samples using the background buffer at pH 6.3.
# [2] = test system: xenotropic murine leukemia virus (XMuLV); details: static, mAb 18 g/L; for Time to Complete Inactivation: XMuLV
# Method: The purpose of this study was to evaluate the virus inactivation kinetics of xenotropic murine leukemia virus (XMuLV, an enveloped virus commonly used for clearance studies of monoclonal antibody products, under low pH conditions. The objective was to determine the exposure time required for complete inactivation.
# Following confirmation of pH, the virus spike was added to the sample reservoir containing the mAb and vortexed to ensure a well-mixed system. The XMuLV target spike level was 1×10^7 TCID50/mL (TCID50=Tissue Culture Infection Dose) (4% spike v/v). Within 0.3 minutes of the virus addition, a 1 mL sample was removed and transferred to a tube containing a previously determined volume of 2 M Tris Base to neutralize (pH 6-8) the sample and quench the inactivation step. The tube was vortexed after the base addition. This process of removing and neutralizing a sample was repeated for each time point. These experiments were carried out at room temperature, 22-25° C. Control samples at the initial and final time points were also analyzed. For the control samples, the pH was maintained at the feed pH level but the samples were diluted similarly to the actual samples using the background buffer.
# The neutralized samples were assayed for infectivity using the cell-based TCID50 infectivity assay using PG4 indicator cells (Bolton G, Cabatingan M, Rubino M, et al. Normal-flow virus filtration:detection and assessment of the endpoint in bio-processing. Biotechnol Appl Biochem 2005; 42: 133-42). To mitigate cytotoxicity and quench the virus inactivation, samples were diluted 1:50 with ten-fold serial dilutions in cell culture media and then 100 μl aliquots of each dilution were added to a 96-well plate. Following incubation at 37° C. in 5% CO2 for 7 days, infected wells were visually assessed for cytopathic effect (CPE). Titers and LRVs were calculated using standard methods (ICH. Guidance on Viral Safety Evaluation of Biotechnology Products Derived From Cell Lines of Human or Animal Origin. In: Use ICoHoTRfRoPfH, ed. Geneva, Switzerland: ICH, 1998). To determine the LRV at each time point, the titer of the time point was subtracted from the titer of the closest control time point.
# Phi6 [3] = details: in-line continuous flow, 1 M acetic acid added at 0.75 mL/min to 1 mL/min feed
# Method: This representative example describes the use of a continuous flow system to carry out low pH virus inactivation.
# A system consisting of a main feed pump, an acid addition pump, and a base addition pump was used to inactivate virus under continuous flow conditions. A mAb solution was spiked with Phi6 and was connected to the main feed pump inlet. The Phi6 target spike level was 1×10^8 pfu/mL. […] The feed flow rate was set to 1 mL/min. Acid was added into the main stream at a flow rate of 0.75 mL/min. The fluid then passed through a static mixer and a length of tubing designed to contain a particular volume (targeting a desired residence time). Different lengths of tubing were used to contain the required volume for each target average residence time (1, 2, 3, 4, 5, 15 min) after accounting for the dead volume from the valves and pH probe between the acid addition point and the beginning of the incubation chamber. […] At the outlet of the incubation chamber, the material was neutralized by the addition of base into the main line at a flow rate of 0.4 mL/min. The fluid passed through another static mixer and then the neutralized samples were collected at the outlet and assayed for infectivity using the plaque assay. These experiments were carried out at room temperature, 22-25° C. Control samples were also assayed. For the control samples, the pH was maintained at the feed pH level but the samples were diluted similarly to the actual samples using the background buffer.
# Phi6 [4] = experiment: Static detergent-based virus inactivation, plaque assay for infectivity; assay type: cell-based, bacteriophage virus
# Method: The purpose of this study was to examine detergent-based virus inactivation kinetics. In this representative experiment, two different concentrations (0.1% and 1.0% v/v) of a detergent, Triton X-100, were used to inactivate a bacteriophage virus, Phi6.
# The virus spike was added and vortexed to ensure a well-mixed system. […] Detergent was added to reach the desired concentrations of 0.1% and 1.0% v/v. At various time points, a sample was removed and quenched by adding it to buffer at a 1:1000 dilution ratio. The tubes were vortexed after the detergent addition.
compound,measurement,setting,value
CC(=O)O [acetic acid],Phi6 Log Reduction Values (LRV),Phi6 [1]; inactivation time 1 min,≥6.8
same,Phi6 Log Reduction Values (LRV),Phi6 [1]; inactivation time 2 min,≥6.8
same,Phi6 Log Reduction Values (LRV),Phi6 [1]; inactivation time 3 min,≥6.8
same,Phi6 Log Reduction Values (LRV),Phi6 [1]; inactivation time 4 min,≥6.8
same,Phi6 Log Reduction Values (LRV),Phi6 [1]; inactivation time 5 min,≥6.8
same,Phi6 Log Reduction Values (LRV),Phi6 [1]; inactivation time 15 min,≥6.8
same,Time to Complete Inactivation,[2]; pH 4.0 (8.7 M acetic acid),≤15 min
same,Time to Complete Inactivation,[2]; pH 4.2 (8.7 M acetic acid),≤30 min
same,XMuLV LRV,"[2]; pH 3.5 (8.7 M acetic acid), inactivation time 0.3 min",4.0
same,XMuLV LRV,"[2]; pH 3.5 (8.7 M acetic acid), inactivation time 1 min",≥5.4
same,XMuLV LRV,"[2]; pH 3.5 (8.7 M acetic acid), inactivation time 2 min",≥5.4
same,XMuLV LRV,"[2]; pH 3.5 (8.7 M acetic acid), inactivation time 3 min",≥5.4
same,XMuLV LRV,"[2]; pH 3.5 (8.7 M acetic acid), inactivation time 4 min",≥5.4
same,XMuLV LRV,"[2]; pH 3.5 (8.7 M acetic acid), inactivation time 5 min",≥5.5
same,XMuLV LRV,"[2]; pH 3.5 (8.7 M acetic acid), inactivation time 15 min",≥5.5
same,XMuLV LRV,"[2]; pH 3.5 (8.7 M acetic acid), inactivation time 30 min",≥5.5
same,XMuLV LRV,"[2]; pH 3.5 (8.7 M acetic acid), inactivation time 60 min",≥5.5
same,XMuLV LRV,"[2]; pH 3.7 (8.7 M acetic acid), inactivation time 0.3 min",3.6
same,XMuLV LRV,"[2]; pH 3.7 (8.7 M acetic acid), inactivation time 1 min",≥5.5
same,XMuLV LRV,"[2]; pH 3.7 (8.7 M acetic acid), inactivation time 2 min",≥5.5
same,XMuLV LRV,"[2]; pH 3.7 (8.7 M acetic acid), inactivation time 3 min",≥5.5
same,XMuLV LRV,"[2]; pH 3.7 (8.7 M acetic acid), inactivation time 4 min",≥5.5
same,XMuLV LRV,"[2]; pH 3.7 (8.7 M acetic acid), inactivation time 5 min",≥5.7
same,XMuLV LRV,"[2]; pH 3.7 (8.7 M acetic acid), inactivation time 15 min",≥5.7
same,XMuLV LRV,"[2]; pH 3.7 (8.7 M acetic acid), inactivation time 30 min",≥5.7
same,XMuLV LRV,"[2]; pH 3.7 (8.7 M acetic acid), inactivation time 60 min",≥5.7
same,XMuLV LRV,"[2]; pH 4.0 (8.7 M acetic acid), inactivation time 0.3 min",1.6
same,XMuLV LRV,"[2]; pH 4.0 (8.7 M acetic acid), inactivation time 1 min",4.7
same,XMuLV LRV,"[2]; pH 4.0 (8.7 M acetic acid), inactivation time 2 min",5.2
same,XMuLV LRV,"[2]; pH 4.0 (8.7 M acetic acid), inactivation time 3 min",5.3
same,XMuLV LRV,"[2]; pH 4.0 (8.7 M acetic acid), inactivation time 4 min",5.2
same,XMuLV LRV,"[2]; pH 4.0 (8.7 M acetic acid), inactivation time 5 min",5.6
same,XMuLV LRV,"[2]; pH 4.0 (8.7 M acetic acid), inactivation time 15 min",≥5.4
same,XMuLV LRV,"[2]; pH 4.0 (8.7 M acetic acid), inactivation time 30 min",≥5.4
same,XMuLV LRV,"[2]; pH 4.0 (8.7 M acetic acid), inactivation time 60 min",≥5.4
same,XMuLV LRV,"[2]; pH 4.2 (8.7 M acetic acid), inactivation time 0.3 min",1.5
same,XMuLV LRV,"[2]; pH 4.2 (8.7 M acetic acid), inactivation time 1 min",3.3
same,XMuLV LRV,"[2]; pH 4.2 (8.7 M acetic acid), inactivation time 2 min",3.5
same,XMuLV LRV,"[2]; pH 4.2 (8.7 M acetic acid), inactivation time 3 min",3.9
same,XMuLV LRV,"[2]; pH 4.2 (8.7 M acetic acid), inactivation time 4 min",4.0
same,XMuLV LRV,"[2]; pH 4.2 (8.7 M acetic acid), inactivation time 5 min",4.2
same,XMuLV LRV,"[2]; pH 4.2 (8.7 M acetic acid), inactivation time 15 min",4.6
same,XMuLV LRV,"[2]; pH 4.2 (8.7 M acetic acid), inactivation time 30 min",≥5.7
same,XMuLV LRV,"[2]; pH 4.2 (8.7 M acetic acid), inactivation time 60 min",≥5.7
same,Phi6 LRV,Phi6 [3]; average residence time 1 min,≥6.8
same,Phi6 LRV,Phi6 [3]; average residence time 2 min,≥6.8
same,Phi6 LRV,Phi6 [3]; average residence time 3 min,≥6.8
same,Phi6 LRV,Phi6 [3]; average residence time 4 min,≥6.8
same,Phi6 LRV,Phi6 [3]; average residence time 5 min,≥6.8
same,Phi6 LRV,Phi6 [3]; average residence time 15 min,≥6.8
Triton X-100,Phi6 LRV,"Phi6 [4]; 0.1% v/v Triton X-100, mAb 15 mg/mL, inactivation time 1 min",≥5.2
same,Phi6 LRV,"Phi6 [4]; 0.1% v/v Triton X-100, mAb 15 mg/mL, inactivation time 2 min",≥5.2
same,Phi6 LRV,"Phi6 [4]; 0.1% v/v Triton X-100, mAb 15 mg/mL, inactivation time 3 min",≥5.2
same,Phi6 LRV,"Phi6 [4]; 0.1% v/v Triton X-100, mAb 15 mg/mL, inactivation time 4 min",≥5.2
same,Phi6 LRV,"Phi6 [4]; 0.1% v/v Triton X-100, mAb 15 mg/mL, inactivation time 5 min",≥5.2
same,Phi6 LRV,"Phi6 [4]; 0.1% v/v Triton X-100, mAb 15 mg/mL, inactivation time 15 min",≥5.2
same,Phi6 LRV,"Phi6 [4]; 0.1% v/v Triton X-100, mAb 15 mg/mL, inactivation time 30 min",≥5.2
same,Phi6 LRV,"Phi6 [4]; 1.0% v/v Triton X-100, mAb 15 mg/mL, inactivation time 1 min",≥6.2
same,Phi6 LRV,"Phi6 [4]; 1.0% v/v Triton X-100, mAb 15 mg/mL, inactivation time 2 min",≥6.2
same,Phi6 LRV,"Phi6 [4]; 1.0% v/v Triton X-100, mAb 15 mg/mL, inactivation time 3 min",≥6.2
same,Phi6 LRV,"Phi6 [4]; 1.0% v/v Triton X-100, mAb 15 mg/mL, inactivation time 4 min",≥6.2
same,Phi6 LRV,"Phi6 [4]; 1.0% v/v Triton X-100, mAb 15 mg/mL, inactivation time 5 min",≥6.2
same,Phi6 LRV,"Phi6 [4]; 1.0% v/v Triton X-100, mAb 15 mg/mL, inactivation time 15 min",≥6.2
same,Phi6 LRV,"Phi6 [4]; 1.0% v/v Triton X-100, mAb 15 mg/mL, inactivation time 30 min",≥6.2
